Patent US12233130B2, “Covalently-modified steroid acid-peptides having enhanced stability and/or biological activity” (DEFENCE THERAPEUTICS INC., priority 2022, dated 2025)
Positions of bridges follow the written chain, without caps; N, C: chain ends. Residues, ends and D or L forms follow the SMILES beside them. Chains are numbered I, II in the order given. *: point of attachment. Chenodeoxycholyl = C[C@H](CCC(=O)*)[C@H]1CC[C@H]2[C@@H]3[C@H](O)C[C@@H]4C[C@H](O)CC[C@]4(C)[C@H]3CC[C@]12C; Cholyl = C[C@H](CCC(=O)*)[C@H]1CC[C@H]2[C@@H]3[C@H](O)C[C@@H]4C[C@H](O)CC[C@]4(C)[C@H]3C[C@H](O)[C@]12C

Experiments:
EL4 lymphoma cells = experiment: Apoptosis analysis by flow cytometry (Annexin-V/PI); format: cell-based
Method: (§1) Apoptosis analysis was conducted by flow-cytometry. Briefly, target cells were first treated then washed. Treated cells were then re-suspended in Annexin-V staining buffer prior to staining with Annexin-V and propidium iodine (PI). Fifteen minutes later, cells were washed prior to analysis using BD FACS™ Diva on CANTOII™.

[1] = test system: EL4 lymphoma, B16 melanoma, E0771 breast cancer, CT-26 colon carcinoma, 4T1 breast cancer, MBA-MD-468, H460 and A549 lung cancer cells; experiment: Cytotoxicity screen of bile acid-SV40 conjugates (Annexin-V) on eight cancer cell lines; format: cell-based; details: 190 μM, all eight tumor cell lines tested
Method: Annexin-V staining percentage after treatment with different bile acid-SV40 conjugates (190 μM) is shown relative to live cancer cells (i.e., PBS treated cancer cells) by flow cytometry. Cancer cell lines tested were EL4 lymphoma, B16 melanoma, E0771 breast cancer, CT-26 colon carcinoma, 4T1 breast cancer, MBA-MD-468 triple-negative breast cancer, human H460 lung cancer, and human A549 lung cancer. […] SV40 alone was also tested as a negative control.
as §1

EL4 lymphoma = experiment: EL4 tumor model in vivo (tumor growth, survival); design: species or system mice; details: highest tested dose (190 μM), every 48 h, 5 injections
Method: Female C57BL/6 mice (n=10/group) received a SC injection of 5×10^5 EL4 cells at Day 0. […] For all depletion studies, antibodies were injected via the intraperitoneal route at days 0, 3 and 6 at a concentration of 200 μg/injection. Tumor size and animal survival for all of the above listed in vivo studies was followed thereafter using a digital caliber until reaching endpoints (ulceration or a tumor volume ≥1000 mm^3).

macrophages = experiment: Apoptosis analysis by flow cytometry on normal cells; format: cell-based; details: 190 μM
Method: as §1

[2] = test system: mesenchymal stem cells (MSCs); experiment: as above; format: cell-based; details: 190 μM
Method: as §1

[3] = test system: bone marrow-derived dendritic cells (DCs); experiment: as above; format: cell-based, mouse; details: 190 μM
Method: Mouse bone marrow derived DCs (BMDCs) were generated by flushing the whole marrow from mouse femurs using RPMI™ 1640 supplemented with 10% fetal bovine serum (FBS), 50 U/mL Penicillin-Streptomycin, 2 mM L-glutamine, 10 mM HEPES, 1% MEM Non-essential Amino Acids, 1 mM Sodium Pyruvate, 0.5 mM β-mercaptoethanol. Following red blood cell lysis, cells were then cultured in media supplemented with 50 ng/ml murine recombinant GM-CSF. The media was changed on days 2, 4, 6 and 8. On day 9, the media was replaced to include recombinant murine GM-CSF and LPS from Escherichia coli 0111 (1 ng/mL) to stimulate DC maturation. Mature DCs were assessed by flow cytometry for their surface expression of CD3, CD19, NK1.1, CD11c, CD80, CD86, and I-A^b.
as §1

[4] = Stability testing (impurities by HPLC); format: physicochemical; details: dimer vs monomer
Source text: GMP synthesis of the CDCA-C-SV40 monomer yielded a white powder and the results of initial stability testing is summarized below:
As shown above, two main impurities were detected by HPLC relating to the reactivity of the free thiol group of the CDCA-C-SV40 monomer, namely impurities resulting from oxidation of the thiol group (Impurity A) and the formation an intermolecular disulfide bond via the thiol groups of two CDCA-C-SV40 monomers, producing a (CDCA-C-SV40)2 dimer (Impurity B).
To attempt to improve stability, the synthesis protocol of CDCA-C-SV40 was modified to produce the conjugate directly in its dimerized form (Impurity B). […] At 25° C., total impurities rose only slightly from 1.6% at Day 0 to 2.1% after 3 months. At 40° C., total impurities rose from 1.6% at Day 0 to 1.7% after 5 days, 2.4% after 10 days, and to 3.7% after 30 days.

[5] = test system: 4T1, EL4, CT-26, B16 and E0771 tumor cell lines; experiment: Cell death by flow cytometry on five tumor cell lines; format: cell-based; details: 95 and 190 μM
Method: as §1

EL4 cells = experiment: Endosomal escape: apoptosis assay with exogenous cytochrome C; format: cell-based; details: cytochrome C alone
Method: Endosomal leakage was assessed using two different approaches; the first strategy utilizes the FRET sensor CCF4-AM, a β-lactamase substrate. Briefly, EL4 cells were treated with 1 μM CCF4-AM for 1 h followed by the addition of 10 mg/ml of β-lactamase in the presence or absence of CA-C-SV40 (at concentration of 190 μM) for 3 h at 37° ° C. The cells were then washed, and fresh media added for an incubation period of 16 h at 37° C. The loss of FRET signal between the coumarin (donor) and fluorescein (acceptor) fluorophores was quantified by flow cytometry. For the apoptosis assay, 10^5 EL4 cells were first supplemented with 10 mg/ml of exogenous rCyt-C for 6 h at 37° C. in the presence or absence of CA-C-SV40 (at a concentration of 190 μM). Once the incubation period completed, the cells were washed with ice cold PBS, then stained for Annexin-V according to manufacturer's instructions prior to analysis using BD FACS Diva on CANTOII.
Cytochrome C is a protein that is normally entrapped in the mitochondria but can be released upon intrinsic signaling known to trigger apoptosis. An experiment was designed where recombinant cytochrome C was added to EL4 cells either alone or in combination with CA-C-SV40 ([…]) (FIG. 3A).

SV40 NLS: nuclear localization signal from SV40 large T-antigen (SEQ ID NO: 2), tested alone as negative control
cytotoxic activity (EL4 lymphoma cells; separately, at any of the concentrations tested): did not exhibit any cytotoxic activity

CC(C)[C@H](NC(=O)[C@H](CCCCN)NC(=O)[C@H](CCCNC(=N)N)NC(=O)[C@H](CCCCN)NC(=O)[C@H](CCCCN)NC(=O)[C@H](CCCCN)NC(=O)[C@@H]1CCCN1C(=O)CNC(=O)[C@H](Cc1ccc(O)cc1)NC(=O)CNC(=O)[C@H](CS)NC(=O)CC[C@@H](C)[C@H]1CC[C@H]2[C@@H]3[C@H](O)C[C@@H]4C[C@H](O)CC[C@]4(C)[C@H]3CC[C@]12C)C(=O)NCC(=O)NCC(=O)O [CDCA-C-SV40] (Chenodeoxycholyl-CGYGPKKKRKVGG-OH)
cytotoxic activity [1]: 100%

CC[C@H](C)[C@H](NC(=O)[C@H](CCCNC(=N)N)NC(=O)[C@H](CCCCN)NC(=O)[C@H](CCSC)NC(=O)[C@H](CC(C)C)NC(=O)[C@H](Cc1c[nH]cn1)NC(=O)[C@@H](NC(=O)[C@@H](NC(=O)[C@H](Cc1ccc(O)cc1)NC(=O)CNC(=O)[C@H](C)NC(=O)[C@@H](NC(=O)[C@H](CCCCN)NC(=O)[C@H](CC(N)=O)NC(=O)[C@H](CCCNC(=N)N)NC(=O)[C@H](CC(C)C)NC(=O)[C@H](CCCCN)NC(=O)[C@H](CCCCN)NC(=O)[C@H](CO)NC(=O)[C@H](CS)NC(=O)CC[C@@H](C)[C@H]1CC[C@H]2[C@@H]3[C@H](O)C[C@@H]4C[C@H](O)CC[C@]4(C)[C@H]3C[C@H](O)[C@]12C)[C@@H](C)CC)C(C)C)[C@@H](C)O)C(=O)O [CA-C-NLS3 RPS17] (Cholyl-CSKKLRNKIAGYVTHLMKRI-OH; N-terminus and C-terminus assumed)
tumor growth (EL4 lymphoma): significantly delayed tumor growth

CC(C)[C@H](NC(=O)[C@H](CCCCN)NC(=O)[C@H](CCCNC(=N)N)NC(=O)[C@H](CCCCN)NC(=O)[C@H](CCCCN)NC(=O)[C@H](CCCCN)NC(=O)[C@@H]1CCCN1C(=O)CNC(=O)[C@H](Cc1ccc(O)cc1)NC(=O)CNC(=O)[C@H](CS)NC(=O)CC[C@@H](C)[C@H]1CC[C@H]2[C@@H]3[C@H](O)C[C@@H]4C[C@H](O)CC[C@]4(C)[C@H]3C[C@H](O)[C@]12C)C(=O)NCC(=O)NCC(=O)O [CA-C-SV40] (Cholyl-CGYGPKKKRKVGG-OH)
apoptosis in normal or healthy cells (macrophages): induce apoptosis | apoptosis in normal or healthy cells [2]: induce apoptosis | cytotoxicity of cholic acid-NLS conjugates (EL4 lymphoma cells; 190 μM, Annexin-V staining): notably higher than that of CA-C-GWG-SV40 | apoptosis in normal or healthy cells [3]: induce apoptosis

CC(C)[C@H](NC(=O)[C@H](CCCCN)NC(=O)[C@H](CCCNC(=N)N)NC(=O)[C@H](CCCCN)NC(=O)[C@H](CCCCN)NC(=O)[C@H](CCCCN)NC(=O)[C@@H]1CCCN1C(=O)CNC(=O)[C@H](Cc1ccc(O)cc1)NC(=O)CNC(=O)[C@H](CSSC[C@H](NC(=O)CC[C@@H](C)[C@H]1CC[C@H]2[C@@H]3[C@H](O)C[C@@H]4C[C@H](O)CC[C@]4(C)[C@H]3CC[C@]12C)C(=O)NCC(=O)N[C@@H](Cc1ccc(O)cc1)C(=O)NCC(=O)N1CCC[C@H]1C(=O)N[C@@H](CCCCN)C(=O)N[C@@H](CCCCN)C(=O)N[C@@H](CCCCN)C(=O)N[C@@H](CCCNC(=N)N)C(=O)N[C@@H](CCCCN)C(=O)N[C@H](C(=O)NCC(=O)NCC(=O)O)C(C)C)NC(=O)CC[C@@H](C)[C@H]1CC[C@H]2[C@@H]3[C@H](O)C[C@@H]4C[C@H](O)CC[C@]4(C)[C@H]3CC[C@]12C)C(=O)NCC(=O)NCC(=O)O [(CDCA-C-SV40)2] (I: Chenodeoxycholyl-CGYGPKKKRKVGG-OH / II: Chenodeoxycholyl-CGYGPKKKRKVGG-OH; disulfide I:1-II:1)
stability relative to corresponding monomer [4]: markedly higher stability | cytotoxicity [5]: potent cytotoxicity

cytochrome C: recombinant cytochrome C added to EL4 cells as cargo
cell death (EL4 cells): did not trigger cell death

CSCC[C@H](NC(=O)[C@H](CS)NC(=O)CC[C@@H](C)[C@H]1CC[C@H]2[C@@H]3[C@H](O)C[C@@H]4C[C@H](O)CC[C@]4(C)[C@H]3C[C@H](O)[C@]12C)C(=O)NCC(=O)N[C@@H](CCCNC(=N)N)C(=O)N[C@H](C(=O)N[C@@H](CCCNC(=N)N)C(=O)N[C@H](C(=O)N[C@@H](CCCCN)C(=O)N[C@H](C(=O)N[C@H](C(=O)N[C@@H](CCCCN)C(=O)N[C@@H](CCCCN)C(=O)N[C@@H](C)C(=O)N[C@@H](C)C(=O)NCC(=O)NCC(=O)O)C(C)C)[C@@H](C)O)[C@@H](C)O)C(C)C [CA-C-NLS1 RPS17] (Cholyl-CMGRVRTKTVKKAAGG-OH; N-terminus and C-terminus assumed)
tumor growth (EL4 lymphoma): significantly delayed tumor growth

CC(=O)N[C@@H](CS)C(=O)O [NAC, N-acetylcysteine]
rescue from CA-C-SV40-triggered cell death (EL4 lymphoma cells; CA-C-SV40 at higher doses (IC100)): incomplete but significant blockade
